We go through 14 compounds from patent publication US20120004228A1, “Bis Aromatic Compounds for Use as LTC4 Synthase Inhibitors” (BIOLIPOX AB, priority 2009, published 2012).

Molecules are shown by their SMILES.

One assay addresses T1, Recombinant human LTC4 synthase (Homo sapiens, UniProt Q16873).
T1 construct: made in house; host or cells: Pichia pastoris ('Piccia pastoralis' [sic])
T1 sequence (Q16873 1-150): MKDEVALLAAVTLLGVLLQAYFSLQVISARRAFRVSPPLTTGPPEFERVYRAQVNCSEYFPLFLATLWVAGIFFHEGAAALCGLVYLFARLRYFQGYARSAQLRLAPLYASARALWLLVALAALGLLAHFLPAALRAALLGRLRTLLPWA
Kind of assay: In vitro LTC4 synthase assay (LTA4 to LTC4, HTRF detection). Type of assay: biochemical.
Details: not given
What is called IC50 is the concentration that gives 50% inhibition. In the case of `CN(c1ccc(Cl)cc1)c1ccc(C(=O)c2cc(C(=O)O)cc(N(CCC3OCCO3)c3ccccc3)c2)nc1` [9:46, 3-{[2-(1,3-Dioxolan-2-yl)ethyl](phenyl)amino}-5-{5-[(4-chlorophenyl)(methyl)-amino]picolinoyl}benzoic acid], the half-maximal inhibitory concentration (IC50) was 122 nM.

Take `CN(c1ccc(Cl)cc1)c1ccc(C(=O)c2ccc(Nc3ccc(Cl)cc3)cc2)c(C(=O)O)c1` [6:3, 2-[4-(4-Chlorophenylamino)benzoyl]-5-[(4-chlorophenyl)(methyl)amino]-benzoic acid]: the IC50 amounted to 224 nM.

In the case of `CC(=O)N(c1ccccc1)c1cc(C(=O)O)cc(C(=O)c2ccc(N(CC3CC3)c3ccc(Cl)cc3)cn2)c1` [9:19, 3-{5-[(4-Chlorophenyl)(cyclopropylmethyl)amino]picolinoyl}-5-(N-phenylacet-amido)benzoic acid], the IC50 stood at 40 nM.

For the compound `CN(c1ccc(Cl)cc1)c1ccc(C(=O)c2cc(C(=O)O)cc(N(C)c3cccc(Cl)c3)c2)nc1` [Example 9:1, 3-[(3-Chlorophenyl)(methyl)amino]-5-{5-[(4-chlorophenyl)(methyl)amino]-picolinoyl}benzoic acid], the IC50 was 147 nM.

On to `CN(c1ccc(Cl)cc1)c1ccc(C(=O)c2cc(Nc3ccccc3OC(F)(F)F)cc(C(=O)O)c2)cc1` [10:4, 3-{4-[(4-Chlorophenyl)(methyl)amino]benzoyl}-5-(2-(trifluoromethoxy)-phenylamino)benzoic acid], for which the half-inhibitory concentration (IC50) was determined as 206 nM.

`CN(c1ccc(Cl)cc1)c1ccc(C(=O)c2cc(Oc3ccc(Cl)cc3)cc(C(=O)O)c2)nc1` [8:5, 3-(4-Chlorophenoxy)-5-{5-[(4-chlorophenyl)(methyl)amino]picolinoyl}benzoic acid]: the IC50 came out at 76 nM.

With `CN(c1ccc(Cl)cc1)c1ccc(C(=O)c2cc(C(=O)O)cc(N(C)c3cccnc3)c2)nc1` [9:42, 3-{5-[(4-Chlorophenyl)(methyl)amino]picolinoyl}-5-[methyl(3-pyridyl)amino]-benzoic acid], the half-maximal inhibitory concentration (IC50) came out at 1550 nM.

In the case of `CN(c1ccc(Cl)cc1)c1ccc(C(=O)c2cc(Nc3ccc4c(c3)OCCO4)cc(C(=O)O)c2)nc1` [9:33, 3-{5-[(4-Chlorophenyl)(methyl)amino]picolinoyl}-5-(3,4-ethylenedioxy-phenylamino)benzoic acid], the half-maximal inhibitory concentration (IC50) amounted to 463 nM.

With `O=C(O)c1cc(Nc2ccc(Cl)cc2)ccc1C(=O)c1ccc(Nc2ccc(Cl)cc2)cc1` [Example 6:1, 5-(4-Chlorophenylamino)-2-[4-(4-chlorophenylamino)benzoyl]benzoic acid], the 50% inhibitory concentration (IC50) amounted to 625 nM.

For the compound `CN(c1ccc(Cl)cc1)c1ccc(C(=O)c2cc(Oc3ccc(Cl)cc3)cc(C(=O)O)c2)cc1` [8:21, 3-(4-Chlorophenoxy)-5-{4-[(4-chlorophenyl)(methyl)amino]benzoyl}benzoic acid], the IC50 stood at 49 nM.

In the case of `CN(c1ccc(Cl)cc1)c1ccc(C(=O)c2cc(C(=O)O)cc(N(C(=O)CO)c3ccccc3)c2)nc1` [9:38, 3-{5-[(4-Chlorophenyl)(methyl)amino]picolinoyl}-5-(2-hydroxy-N-phenylacet-amido)benzoic acid], the IC50 is 470 nM.

In the case of `CN(c1ccc(Cl)cc1)c1ccc(C(=O)c2cc(C(=O)O)cc(C(=O)Nc3ccc(Cl)cc3)c2)nc1` [2:3, 3-{5-[(4-Chlorophenyl)(methyl)amino]picolinoyl}-5-(4-chlorophenyl-carbamoyl)-benzoic acid], the IC50 was found to be 343 nM.

Take `COc1cccc(C(=O)Nc2cc(C(=O)O)cc(C(=O)c3ccc(N(C)c4ccc(Cl)cc4)cn3)c2)c1` [2:10, 3-{5-[(4-Chlorophenyl)(methyl)amino]picolinoyl}-5-(3-methoxybenzamido)-benzoic acid]: the half-maximal inhibitory concentration (IC50) worked out at 412 nM.

For `CN(c1ccc(Cl)cc1)c1ccc(C(=O)c2cc(C(=O)O)cc(N(CCCCO)c3ccccc3)c2)nc1` [9:45, 3-{5-[(4-Chlorophenyl)(methyl)amino]picolinoyl}-5-[(4-hydroxybutyl)(phenyl)-amino]benzoic acid], the half-maximal inhibitory concentration (IC50) is 25 nM.

The same assay, now with this note: 5 min; total concentration of title compound in the assay 10 μM.
In general, inhibition refers to the relative decrease from the control value, in per cent. In the case of `CN(c1ccc(Cl)cc1)c1ccc(C(=O)c2ccc(Nc3ccc(Cl)cc3)cc2)c(C(=O)O)c1` [6:3, 2-[4-(4-Chlorophenylamino)benzoyl]-5-[(4-chlorophenyl)(methyl)amino]-benzoic acid], the inhibition at 10 µM was 99%.

Regarding `O=C(O)c1cc(Nc2ccc(Cl)cc2)ccc1C(=O)c1ccc(Nc2ccc(Cl)cc2)cc1` [Example 6:1, 5-(4-Chlorophenylamino)-2-[4-(4-chlorophenylamino)benzoyl]benzoic acid], the inhibition at 10 µM turned out to be 96%.
